Experiment [1] relates to Rattus norvegicus. Briefly: Antihypertensive activity as percentage fall in systolic blood pressure in spontaneously hypertensive rats 4 hr after 50 mg/kg po administration; NS means nonsignificant difference between treated and control group. As to conditions: Artery, at 50 mg/kg. Type of experiment: functional, organism-based. The arrangement: dose 50 mg/kg.
In experiment [2] the test system is Rattus norvegicus. The experiment is described as follows: Percentage fall in systolic blood pressure in spontaneously hypertensive rats 1 hr after 50 mg/kg p.o. administration; Not significant. Format: functional, organism-based. The arrangement: dose 50 mg/kg. As to conditions: Artery, at 50 mg/kg.
The subject of experiment [3] is Rattus norvegicus. Briefly: Percentage fall in systolic blood pressure in spontaneously hypertensive rats 2 hr after 50 mg/kg p.o. administration; Not significant. Type of experiment: functional, organism-based. The arrangement: dose 50 mg/kg. As to conditions: Artery, at 50 mg/kg.
The test system of experiment [4] is Rattus norvegicus. The experiment is described as follows: Percentage fall in systolic blood pressure in spontaneously hypertensive rats 3h after 50 mg/kg p.o. administration; Not significant. Type of experiment: functional, organism-based. The arrangement: dose 50 mg/kg. As to conditions: Artery, at 50 mg/kg.
Experiment [5] relates to Rattus norvegicus. Briefly: Percentage fall in systolic blood pressure in spontaneously hypertensive rats 2 hr after 50 mg/kg p.o. administration. As to conditions: route oral. Format: functional, Artery.
The subject of experiment [6] is Rattus norvegicus. Briefly: Antihypertensive activity as percentage fall in systolic blood pressure in spontaneously hypertensive rats 4 hr after 50 mg/kg po administration. Format: functional, Artery.
Experiment [7] deals with Rattus norvegicus. Briefly: Antihypertensive activity as percentage fall in systolic blood pressure in spontaneously hypertensive rats 3h after 25 mg/kg po administration;NS means nonsignificant difference between treated and control group. Type of experiment: functional, organism-based. The arrangement: dose 25 mg/kg. As to conditions: Artery, at 25 mg/kg.
Experiment [8] has as its system Rattus norvegicus. The experiment is described as follows: Antihypertensive activity as percentage fall in systolic blood pressure in spontaneously hypertensive rats 3h after 50 mg/kg po administration. Format: functional, Artery.
In experiment [9] the test system is Rattus norvegicus. The experiment is described as follows: Antihypertensive activity as percentage fall in systolic blood pressure in spontaneously hypertensive rats 1 hr after 25 mg/kg po administration. Format: functional, Artery.
The subject of experiment [10] is Rattus norvegicus. Briefly: Antihypertensive activity as percentage fall in systolic blood pressure in spontaneously hypertensive rats 2 hr after 25 mg/kg po administration. Type of experiment: functional, Artery.
Experiment [11] concerns Rattus norvegicus. The experiment is described as follows: Antihypertensive activity as percentage fall in systolic blood pressure in spontaneously hypertensive rats 1 hr after 50 mg/kg po administration. Format: functional, Artery.

For `CCCOc1cc2c(cc1OC)CCN1CC[C@@]3(CNC(=O)O3)C[C@@H]21`, the Fall entry with Rattus norvegicus [1], in the experiment with Rattus norvegicus [2], in the experiment on Rattus norvegicus [3] and in the experiment on Rattus norvegicus [4] was “Not significant” in each case.

On to `CC1Cc2ccccc2[C@@H]2C[C@@]3(CCN12)CNC(=O)O3` (stereo partly specified), for which the Fall result in the experiment on Rattus norvegicus [1], with Rattus norvegicus [2], with Rattus norvegicus [3] and in the experiment with Rattus norvegicus [4] was “Not significant” throughout.

Regarding `COc1cc2c(cc1OC)[C@@H]1C[C@@]3(CCN1CC2)CNC(=O)O3`, the Fall result is “Not significant” in the experiment on Rattus norvegicus [1]; 13% with Rattus norvegicus [5]; “Not significant” in the experiment on Rattus norvegicus [2]; 15% in the experiment on Rattus norvegicus [6]; “Not significant” with Rattus norvegicus [7]; 12% in the experiment on Rattus norvegicus [8]. The Fall was 22% in the experiment with Rattus norvegicus [9]; “Not significant” with Rattus norvegicus [3]; “Not significant” with Rattus norvegicus [4]; 19% with Rattus norvegicus [10]; 20% in the experiment with Rattus norvegicus [11].

Turning to `CC[C@H]1CN2CCc3cc(OC)c(OC)cc3[C@@H]2C[C@@]12OC(=O)N[C@H]2CC`, the Fall in the experiment with Rattus norvegicus [5] was found to be 48%; in the experiment with Rattus norvegicus [6] it was 24%; with Rattus norvegicus [8], 30%; in the experiment on Rattus norvegicus [11] it was 43%.

With `COc1cc2c(cc1OC(C)C)[C@@H]1C[C@@]3(CCN1CC2)CNC(=O)O3`, the Fall result is “Not significant” in the experiment on Rattus norvegicus [1], 8% in the experiment on Rattus norvegicus [8], “Not significant” in the experiment on Rattus norvegicus [3] and 19% with Rattus norvegicus [11].

Turning to `O=C1NC[C@@]2(CCN3CCc4cc5c(cc4[C@@H]3C2)OCO5)O1`, the Fall result in the experiment on Rattus norvegicus [1] was “Not significant”; with Rattus norvegicus [8], 14%; with Rattus norvegicus [3] it was “Not significant”; in the experiment on Rattus norvegicus [11], 28%.

Turning to `CCN1C[C@@]2(CCN3CCc4cc(OC)c(OC)cc4[C@@H]3C2)OC1=O`, the Fall entry in the experiment on Rattus norvegicus [1] was “Not significant”; in the experiment on Rattus norvegicus [3] it was “Not significant”; in the experiment on Rattus norvegicus [4], “Not significant”; with Rattus norvegicus [11], 31%.

Regarding `CC[C@H]1CN2CCc3cc(OC)c(OC)cc3[C@@H]2C[C@]12CNC(=O)O2`, the Fall with Rattus norvegicus [5] (50 mg/kg) was determined as 40%; in the experiment on Rattus norvegicus [6] (50 mg/kg) it was 28%; with Rattus norvegicus [8] (50 mg/kg) it was 33%; in the experiment on Rattus norvegicus [9], 44%; in the experiment on Rattus norvegicus [10], 30%; in the experiment with Rattus norvegicus [11] (50 mg/kg) it was 52%.

For the molecule `CC[C@H]1CN2CCc3ccccc3[C@@H]2C[C@]12CNC(=O)O2`, the Fall entry in the experiment with Rattus norvegicus [1] is “Not significant”; with Rattus norvegicus [3] it was “Not significant”; in the experiment with Rattus norvegicus [4], “Not significant”; in the experiment with Rattus norvegicus [11], 25%.

As to `O=C1NC[C@@]2(CCN3C[C@@H](c4ccccc4)c4ccccc4[C@@H]3C2)O1`, the Fall entry in the experiment on Rattus norvegicus [1], in the experiment with Rattus norvegicus [2], in the experiment with Rattus norvegicus [3] and in the experiment with Rattus norvegicus [4] was “Not significant” throughout.

Turning to `CN1C[C@]2(CCN3CCc4ccccc4[C@@H]3C2)OC1=O`, the Fall result is “Not significant” in the experiment on Rattus norvegicus [1], -10% in the experiment with Rattus norvegicus [5], “Not significant” with Rattus norvegicus [2] and -12% with Rattus norvegicus [8].

For the molecule `CCCN1C[C@]2(CCN3CCc4cc(OC)c(OC)cc4[C@@H]3C2)OC1=O`, the Fall result in the experiment with Rattus norvegicus [1], in the experiment with Rattus norvegicus [2], with Rattus norvegicus [3] and in the experiment with Rattus norvegicus [4] was “Not significant” each time.

Regarding `O=C1NC[C@]2(CCN3CCc4ccccc4[C@@H]3C2)O1`, the Fall entry with Rattus norvegicus [1], with Rattus norvegicus [2], in the experiment on Rattus norvegicus [3] and in the experiment on Rattus norvegicus [4] was “Not significant” in each case.

Consider `COc1cc2c(cc1OC)[C@@H]1C[C@]3(CNC(=O)O3)[C@@H](c3ccccc3)CN1CC2`, for which the Fall entry with Rattus norvegicus [1] is “Not significant”; in the experiment on Rattus norvegicus [2], “Not significant”; with Rattus norvegicus [8], -9%; with Rattus norvegicus [3], “Not significant”.

Consider `C[C@H]1CN2CC[C@@]3(CNC(=O)O3)C[C@H]2c2ccccc21`, for which the Fall result in the experiment with Rattus norvegicus [1], in the experiment with Rattus norvegicus [2], in the experiment on Rattus norvegicus [3] and with Rattus norvegicus [4] was “Not significant” throughout.

For `COc1cc2c(cc1OC)[C@@H]1C[C@]3(CCN1CC2)CN(C)C(=O)O3`, the Fall with Rattus norvegicus [6] is 18%; in the experiment on Rattus norvegicus [3], “Not significant”; with Rattus norvegicus [4] it was “Not significant”; in the experiment with Rattus norvegicus [11] it was 27%.

`COc1cc2c(cc1OC)[C@@H]1C[C@]3(CCN1CC2)CN(C(C)(C)C)C(=O)O3`: the Fall result in the experiment with Rattus norvegicus [1] was “Not significant”; with Rattus norvegicus [5] it was 20%; with Rattus norvegicus [4] it was “Not significant”; with Rattus norvegicus [11], 39%.

As to `CCC[C@H]1CN2CCc3cc(OC)c(OC)cc3[C@@H]2C[C@]12CNC(=O)O2`, the Fall in the experiment with Rattus norvegicus [5] is 27%; with Rattus norvegicus [6] it was 16%; in the experiment with Rattus norvegicus [8] it was 17%; in the experiment with Rattus norvegicus [11], 41%.

Regarding `COc1cc2c(cc1OC)[C@@H]1C[C@]3(CCN1CC2)CN(C(C)C)C(=O)O3`, the Fall entry was “Not significant” in the experiment on Rattus norvegicus [1], 16% with Rattus norvegicus [5], “Not significant” in the experiment on Rattus norvegicus [4] and 29% with Rattus norvegicus [11].

Turning to `C[C@@H]1CN2CC[C@@]3(CNC(=O)O3)C[C@H]2c2ccccc21`, the Fall entry in the experiment on Rattus norvegicus [1] is “Not significant”; in the experiment with Rattus norvegicus [3], “Not significant”; in the experiment with Rattus norvegicus [4], “Not significant”; in the experiment on Rattus norvegicus [11], 16%.

As for `CCOc1cc2c(cc1OC)CCN1C[C@H](CC)[C@@]3(CNC(=O)O3)C[C@@H]21`, the Fall entry is “Not significant” in the experiment on Rattus norvegicus [1], 22% with Rattus norvegicus [5], 17% in the experiment with Rattus norvegicus [8] and 25% in the experiment on Rattus norvegicus [11].

In the case of `COc1cc2c(cc1OC)[C@@H]1C[C@]3(CNC(=O)O3)[C@@H](Cc3ccccc3)CN1CC2`, the Fall was 19% in the experiment with Rattus norvegicus [6], “Not significant” in the experiment with Rattus norvegicus [3], “Not significant” in the experiment with Rattus norvegicus [4] and 27% in the experiment on Rattus norvegicus [11].

`CC[C@H]1CN2CCc3cc(OC)c(OC)cc3[C@@H]2C[C@]12CNC(=O)O2` (racemic): the Fall in the experiment with Rattus norvegicus [5] (50 mg/kg) was 37%; in the experiment with Rattus norvegicus [6] (50 mg/kg) it was 33%; with Rattus norvegicus [8] (50 mg/kg), 29%; in the experiment with Rattus norvegicus [11] (50 mg/kg) it was 45%.

For the molecule `CC[C@H]1CN2CCc3cc4c(cc3[C@@H]2C[C@]12CNC(=O)O2)OCO4`, the Fall entry with Rattus norvegicus [1], with Rattus norvegicus [2], with Rattus norvegicus [3] and with Rattus norvegicus [4] was “Not significant” each time.

For `COc1cc2c(cc1OC)[C@@H]1C[C@@]3(CCN1CC2)CN(C)C(=O)O3`, the Fall in the experiment with Rattus norvegicus [5] was 14%; with Rattus norvegicus [6], 21%; with Rattus norvegicus [4], “Not significant”; in the experiment on Rattus norvegicus [11], 28%.

`CN1C[C@@]2(CCN3CCc4ccccc4[C@@H]3C2)OC1=O`: the Fall entry in the experiment with Rattus norvegicus [1], in the experiment on Rattus norvegicus [2], in the experiment with Rattus norvegicus [3] and with Rattus norvegicus [4] was “Not significant” in each case.

In the case of `CC[C@@H]1NC(=O)O[C@]12CCN1CCc3cc(OC)c(OC)cc3[C@@H]1C2`, the Fall with Rattus norvegicus [5] is given as 37%; in the experiment on Rattus norvegicus [6] it was 27%; with Rattus norvegicus [8], 30%; in the experiment on Rattus norvegicus [11] it was 45%.

For `COc1cc2c(cc1OC)[C@@H]1C[C@]3(CCN1CC2)CNC(=O)O3`, the Fall entry in the experiment on Rattus norvegicus [1], with Rattus norvegicus [2], in the experiment with Rattus norvegicus [3] and in the experiment with Rattus norvegicus [4] was “Not significant” throughout.

On to `CC[C@H]1NC(=O)O[C@]12CCN1CCc3cc(OC)c(OC)cc3[C@@H]1C2`, for which the Fall is on record as 38% in the experiment on Rattus norvegicus [5], 25% in the experiment on Rattus norvegicus [6], 25% in the experiment with Rattus norvegicus [8] and 41% in the experiment with Rattus norvegicus [11].

Take `CCCCOc1cc2c(cc1OC)CCN1CC[C@@]3(CNC(=O)O3)C[C@@H]21`: the Fall result with Rattus norvegicus [1] is “Not significant”; with Rattus norvegicus [3] it was “Not significant”; in the experiment with Rattus norvegicus [4] it was “Not significant”; in the experiment with Rattus norvegicus [11], 15%.

On to `CCOc1cc2c(cc1OC)[C@@H]1C[C@]3(CNC(=O)O3)[C@@H](CC)CN1CC2`, for which the Fall result in the experiment on Rattus norvegicus [1] was “Not significant”; in the experiment with Rattus norvegicus [5] it was 32%; with Rattus norvegicus [8], 17%; in the experiment on Rattus norvegicus [11], 39%.

With `CCCCN1C[C@]2(CCN3CCc4cc(OC)c(OC)cc4[C@@H]3C2)OC1=O`, the Fall result in the experiment with Rattus norvegicus [1], with Rattus norvegicus [2], with Rattus norvegicus [3] and in the experiment with Rattus norvegicus [4] was “Not significant” in each case.

On to `CCCC[C@H]1CN2CCc3cc(OC)c(OC)cc3[C@@H]2C[C@]12CNC(=O)O2`, for which the Fall in the experiment with Rattus norvegicus [5] came out at 21%; in the experiment with Rattus norvegicus [6], 13%; in the experiment on Rattus norvegicus [8], 13%; with Rattus norvegicus [11] it was 34%.

(Values after ChEMBL document CHEMBL1122367, “Synthesis and antihypertensive activity of a series of spiro[1,3,4,6,7,11b-hexahydro-2H-benzo[a]quinolizine-2,5'-oxazolidin-2'-one]s” (1983).)
